Results published in US20100240040A1, “METHOD FOR SCREENING FOR SELECTIVE MODULATOR OF THE NF-KB PATHWAY ACTIVATION” (INSTITUT PASTEUR, priority 2007, published 2010).
One block for each compound: values may come before it. Where a SMILES comes first, the peptide text is derived from it. Where no end group is shown, it is not given here. The star is where a group is joined. BODIPYFLEthylmaleimide = Cc1cc(C)n2c1C=C1C=CC(CCC(=O)NCCN3C(=O)CC(*)C3=O)=[N+]1[B-]2(F)F; Bodipy = not defined here

How the values were obtained:
NF-κB pathway = details: cited from earlier work; for IC50 of inhibition of NF-κB activation: reported in WO2005/027959, Agou et al., 2004b
spCC2-LZ (MOD of NEMO) = molecular target: T1, spCC2-LZ (MOD of NEMO) (Mus musculus, UniProt O88522); assay: Fluorescence anisotropy binding of labelled peptide to spCC2-LZ; details: labelled peptide 10 μM, increasing spCC2-LZ; read-out: dissociation constant for spCC2-LZ
T1 construct: spCC2-LZ, synthetic polypeptide subdomain CC2-LZ; made in house; host or cells: chemical synthesis
T1 sequence (O88522 253-336): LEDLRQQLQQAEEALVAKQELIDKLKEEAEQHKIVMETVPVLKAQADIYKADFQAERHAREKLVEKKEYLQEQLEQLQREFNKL
Protocol: Anisotropy measurements were performed with a QuantaMaster® fluorometer (PTI), equipped with polarizing filters for excitation and emission, and using a photomultiplier tube in the L-configuration. All experiments were carried out in a microcuvette (60 μl) at 22° C., with excitation and emission wavelengths at 495 and 513 nm. The band pass of the excitation and emission wavelengths was 2 and 4 nm, respectively. Steady-state fluorescence anisotropy, expressed as millianisotropy units was measured as described Agou et al., 2004a. All measurements were carried out in a 20 mM isoionic buffer pH 8 (10 mM acetic acide, 10 mM MES, 20 mM Tris), containing 20 mM KCl. Each data point is the result of 20 recording taken over a 2-min period. To analyse whether DR NLM binds the MOD of NEMO, fluorescent labelled BA-DR NLM (10 μM) was incubated with an increasing concentrations of spCC2-LZ and the complex formation was monitored by fluorescence polarization (P) and results are expressed as anisotropy (A) according to the formula A=2P/(3-P). The concentration of spCC2-LZ was determining by amino acid analysis (Vinolo et al; 2006). Data points were fitted to the binding isotherm equation which gives a dissociation constant of 17 μM.

[1] = molecular target: T2, NEMO oligomers (Flag-NEMO/GFP-NEMO) (Mus musculus, UniProt O88522, A144V/E216G/P360T/S248N); assay: Inhibition of NEMO oligomerization in cells (GFP-NEMO/Flag-NEMO co-transfected 293T cells); type: cell-based, murine; details: 20 μM peptide
T2 construct: expressed in transfected cells; host or cells: 293T (human embryonal kidney), transient co-transfection
T2 sequence (O88522 with tags, fused parts or gaps A144V/E216G/S248N/P360T limits assumed): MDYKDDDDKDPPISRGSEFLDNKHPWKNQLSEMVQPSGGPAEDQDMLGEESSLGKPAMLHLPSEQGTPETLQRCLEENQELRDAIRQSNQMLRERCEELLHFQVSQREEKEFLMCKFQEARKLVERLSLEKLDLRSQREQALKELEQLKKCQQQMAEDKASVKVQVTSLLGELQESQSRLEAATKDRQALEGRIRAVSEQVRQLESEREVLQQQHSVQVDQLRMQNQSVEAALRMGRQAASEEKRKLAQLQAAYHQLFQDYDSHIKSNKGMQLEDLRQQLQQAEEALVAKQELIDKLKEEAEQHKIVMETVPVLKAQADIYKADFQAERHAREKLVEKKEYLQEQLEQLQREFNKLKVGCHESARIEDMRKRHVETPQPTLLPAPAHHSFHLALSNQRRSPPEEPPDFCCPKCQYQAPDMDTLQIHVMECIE
Protocol: 293T cells were transiently co-transfected by calcium-phosphate-DNA precipitation method with 2 μg of a plasmid pcDNA3 (Invitrogen) containing the sequence of FLAG-NEMO (pcDNA3-Flag-NEMO of sequence SEQ ID NO: 24) and 0.7 μg of a plasmid pcDNA3 containing the sequence of GFP-NEMO (pcDNA3-GFP-NEMO of sequence SEQ ID NO: 26). Empty vector is added up to a total amount of DNA of 4 μg per 6 cm dish. 24 h after transfection, cells were resuspended and incubated with or without 20 μM of peptides (A-NLM or A-DR NLM) for 7 h at 37° C. Cells were resuspended and washed twice with PBS to remove excess peptides and lysed in 150 μl of lysis buffer containing a protease inhibitor mixture as indicated above (Example 1.D). Lysates were clarified at 15 000×g at 4° C. for 20 min. The amount of proteins in the clarified lysate is determined by the Bradford method with the kit DC Biorad. 100 μg of total proteins were diluted in 200 μl of interaction buffer (50 mM TrisHCl pH 7.5, 1% triton X100, 1 mM DTE, 300 mM NaCl) and incubated 1 h at 4° C. with 40 μl of agarose anti-Flag M2 beads (Sigma). The oligomers Flag-NEMO/GFP-NEMO were pulled down with the anti-Flag M2 beads and washed twice with the interaction buffer. The fluorescence of GFP-NEMO were directly read on the beads with a fluorescence microplate reader SAFAS and the clarified lysates were analysed by Western blotting using anti-Flag, anti-GFP and anti-NDPK-B antibodies (Kraeft et al., 1996; Exp Cell Res; 227:63-69) to normalize the results.
In order to better analyze the molecular mechanism of the inhibition of the NF-κB pathway by DR NLM peptide, the Inventors have developed an assay to probe NEMO oligomerization in cells as described in Example 1.I (see FIG. 5 for an overview of the cell-based assay). For this, two plasmids were used, expressing respectively GFP-NEMO and Flag-NEMO fusion proteins. The plasmids were cotransfected in human 293T cells to overexpress exogenous GFP-NEMO and Flag-NEMO fusion proteins and enforce NEMO oligomerization. The cells were then submitted to detergent lysis and Flag-NEMO proteins were immunopurified using anti-Flag agarose beads and Flag peptide as described in Example 1.I. The fluorescence associated with beads that results from an association of Flag-NEMO with GFP-NEMO subunits within hetero-oligomers allow an estimate of the amount of oligomers present in the cellular extracts.

[2] = molecular target: T3, CC2-LZ interaction with cellular polyubiquitinylated proteins (Mus musculus, UniProt O88522); assay: Pull-down of polyubiquitinylated proteins from JM4.5.2 extracts with biotinylated CC2-LZ, anti-ubiquitin Western blot; type: biochemical; details: 20 μM peptide, extracts of TNF-α stimulated JM4.5.2 cells
T3 construct: made in house; host or cells: chemical synthesis (bait); crude extract of JM4.5.2 cells with or without TNFα (partners)
T3 sequence (O88522 253-336): as the sequence (O88522 253-336) above
Protocol: 24·10^7 JM4.5.2 cells were stimulated or not with 10 ng/ml of TNFα for 10 minutes at 37° C., washed twice with cold PBS and lysed in 900 μl of lysis buffer containing a protease inhibitor mixture as indicated in Example 1.D. Lysates were clarified at 15 000×g at 4° C. for 30 min. 150 μl of proteins were incubated 2 h at 4° C. with 150 μl of streptavidin magnetic beads (MagPrep®, Novagen) pre-incubated 1 h at 4° C. with 10 μg of biotynilated-CC2-LZ and with or without 20 μM of peptides (BA-NLM or BA-DR NLM). Beads were washed 4 times in buffer A (10 mM Hepes pH 7.5, 150 mM NaCl, 8 mM MgCl2, 10% glycerol, 0.1 mM DDM and 1 mM DTE) and resuspended in 30 μl of laemmli buffer containing 6 M Urea. Samples were analysed by Western blotting using anti-ubiquitin antibodies (Sigma) as well as anti-NDPK-B antibodies for loading controls.
Thus, the Inventors examined whether DR NLM impedes the interaction between NEMO and the K63 polyubiquitin chains. To this end, they developed a pull down assay which uses the a peptide comprising the CC2 and the LZ domains of NEMO as a bait to pull down the polyubiquitinylated proteins as described in Example 1.J and depicted in FIG. 7A. […] After extensive washing of beads, all mono and polyubiquitinylated proteins bound to CC2-LZ were analysed by Western blot using anti-ubiquitin antibody (Sigma).

[3] = molecular target: T4, Lys63-linked polyubiquitin chains (Homo sapiens, UniProt P0CG47); assay: In vitro binding assay by fluorescence polarization to polyubiquitin chains; details: tag-free peptide
T4 construct: the Lys63-linked polyubiquitin chains; purchased Boston Biochem

[4] = Circular dichroism and gel filtration, self-association of peptides; type: physicochemical; details: peptide concentration up to 100 μM; data not shown
Protocol: Far-UV circular dichroism (CD) measurements were performed with an Aviv 215 spectropolarimeter with samples diluted in 10 mM NaPO4 at pH 7.
Then, unlike the LZ peptide, DR NLM peptide as well as NLM peptide are unable to self-associate. Self association of LZ peptide is described by Agou et al., 2004b.

Compound: LKAQADIYKADFQAERHAREKLVEKKEYLQEQLEQLQREFNKL [spLZ]
IC50 of inhibition of NF-κB activation (NF-κB pathway): in the μM range

Kd (spCC2-LZ (MOD of NEMO)): 21 µM
Compound: CC[C@H](C)[C@H](NC(=O)[C@H](CC(=O)O)NC(=O)[C@H](C)NC(=O)[C@H](CCC(N)=O)NC(=O)[C@H](C)NC(=O)[C@H](CCCCN)NC(=O)[C@H](CC(C)C)NC(=O)[C@H](CCCNC(=N)N)NC(=O)[C@H](CCCNC(=N)N)NC(=O)[C@H](CCCNC(=N)N)NC(=O)[C@H](CCCNC(=N)N)NC(=O)[C@H](CCCNC(=N)N)NC(=O)[C@H](CCCNC(=N)N)NC(=O)[C@H](CCCNC(=N)N)NC(=O)[C@H](CSC1CC(=O)N(CCNC(=O)CCC2=[N+]3C(=Cc4c(C)cc(C)n4[B-]3(F)F)C=C2)C1=O)NC(C)=O)C(=O)N[C@@H](Cc1ccc(O)cc1)C(=O)N[C@@H](CCCCN)C(=O)N[C@@H](C)C(=O)N[C@@H](CCCNC(=N)N)C(=O)N[C@@H](Cc1ccccc1)C(=O)N[C@@H](CCC(N)=O)C(=O)N[C@@H](C)C(=O)N[C@@H](CCC(=O)O)C(=O)N[C@@H](CCCNC(=N)N)C(=O)N[C@@H](Cc1c[nH]cn1)C(=O)N[C@@H](C)C(=O)N[C@@H](CCCNC(=N)N)C(=O)N[C@@H](CCC(=O)O)C(=O)N[C@@H](CCCCN)C(N)=O (stereo partly shown) [BR7-DR NLM] (Ac-C(BODIPYFLEthylmaleimide)RRRRRRRLKAQADIYKARFQAERHAREK-NH2; N-terminus and C-terminus assumed)

Compound: BA-LZ L322P/L329P: BA-LZ bearing a double mutation within the coiled-coil interface, SEQ ID NO: 22 (C(Bodipy)RQIKIWFQNRRMKWKKLKAQADIYKADFQAERHAREKLVEKKEYPQEQLEQPQREFNKL; reading uncertain)
amount of NEMO oligomers (fluorescent NEMO subunit recovered) [1]: no dissociation of NEMO oligomers was observed

Compound: BA-NLM: NLM fused at N-terminus with antennapedia and conjugated with bodipy (C(Bodipy)RQIKIWFQNRRMKWKKLKAQADIYKADFQAERHAREK; reading uncertain)
amount of NEMO oligomers (fluorescent NEMO subunit recovered) [1]: same amount of NEMO oligomers in the absence or in the presence

Compound: BA-LZ: Bodipy-antennapedia tagged LZ peptide, SEQ ID NO: 4 (human 5) (C(Bodipy)RQIKIWFQNRRMKWKKLKAQADIYKADFQAERHAREKLVEKKEYLQEQLEQLQREFNKL; reading uncertain)
amount of NEMO oligomers (fluorescent NEMO subunit recovered) [1]: strong decrease in the amount of fluorescent NEMO subunit

inhibition of CC2-LZ interaction with polyubiquitinylated proteins [2]: no inhibition was observed | cooperativity index (Hill coefficient) n [3]: 8 | Kd ([3]; read-out: dissociation constant for Lys63-linked polyubiquitin chains): 180 µM | oligomeric state / self-association [4]: behave as monomer
Compound: CC[C@H](C)[C@H](NC(=O)[C@H](CC(=O)O)NC(=O)[C@H](C)NC(=O)[C@H](CCC(N)=O)NC(=O)[C@H](C)NC(=O)[C@H](CCCCN)NC(=O)[C@H](CC(C)C)NC(C)=O)C(=O)N[C@@H](Cc1ccc(O)cc1)C(=O)N[C@@H](CCCCN)C(=O)N[C@@H](C)C(=O)N[C@@H](CC(=O)O)C(=O)N[C@@H](Cc1ccccc1)C(=O)N[C@@H](CCC(N)=O)C(=O)N[C@@H](C)C(=O)N[C@@H](CCC(=O)O)C(=O)N[C@@H](CCCNC(=N)N)C(=O)N[C@@H](Cc1c[nH]cn1)C(=O)N[C@@H](C)C(=O)N[C@@H](CCCNC(=N)N)C(=O)N[C@@H](CCC(=O)O)C(=O)N[C@@H](CCCCN)C(N)=O [NLM] (Ac-LKAQADIYKADFQAERHAREK-NH2; N-terminus and C-terminus assumed)
inhibition of NF-κB activation (NF-κB pathway; reported in WO 2005/027959): inhibit NF-κB activation

Kd (spCC2-LZ (MOD of NEMO)): 17 µM
Compound: CC[C@H](C)[C@H](NC(=O)[C@H](CC(=O)O)NC(=O)[C@H](C)NC(=O)[C@H](CCC(N)=O)NC(=O)[C@H](C)NC(=O)[C@H](CCCCN)NC(=O)[C@H](CC(C)C)NC(=O)[C@H](CCCCN)NC(=O)[C@H](CCCCN)NC(=O)[C@H](Cc1c[nH]c2ccccc12)NC(=O)[C@H](CCCCN)NC(=O)[C@H](CCSC)NC(=O)[C@H](CCCNC(=N)N)NC(=O)[C@H](CCCNC(=N)N)NC(=O)[C@H](CC(N)=O)NC(=O)[C@H](CCC(N)=O)NC(=O)[C@H](Cc1ccccc1)NC(=O)[C@H](Cc1c[nH]c2ccccc12)NC(=O)[C@@H](NC(=O)[C@H](CCCCN)NC(=O)[C@@H](NC(=O)[C@H](CCC(N)=O)NC(=O)[C@H](CCCNC(=N)N)NC(=O)[C@H](CSC1CC(=O)N(CCNC(=O)CCC2=[N+]3C(=Cc4c(C)cc(C)n4[B-]3(F)F)C=C2)C1=O)NC(C)=O)[C@@H](C)CC)[C@@H](C)CC)C(=O)N[C@@H](Cc1ccc(O)cc1)C(=O)N[C@@H](CCCCN)C(=O)N[C@@H](C)C(=O)N[C@@H](CCCNC(=N)N)C(=O)N[C@@H](Cc1ccccc1)C(=O)N[C@@H](CCC(N)=O)C(=O)N[C@@H](C)C(=O)N[C@@H](CCC(=O)O)C(=O)N[C@@H](CCCNC(=N)N)C(=O)N[C@@H](Cc1c[nH]cn1)C(=O)N[C@@H](C)C(=O)N[C@@H](CCCNC(=N)N)C(=O)N[C@@H](CCC(=O)O)C(=O)N[C@@H](CCCCN)C(N)=O (stereo partly shown) [BA-DR NLM] (Ac-C(BODIPYFLEthylmaleimide)RQIKIWFQNRRMKWKKLKAQADIYKARFQAERHAREK-NH2; N-terminus and C-terminus assumed)
amount of NEMO oligomers (fluorescent NEMO subunit recovered) [1]: same amount of NEMO oligomers in the absence or in the presence

Compound: SKGMQLEDLRQQLQQAEEALVAKQELIDKLKEEAEQHKIV [spCC2]
IC50 of inhibition of NF-κB activation (NF-κB pathway): in the μM range
